Assay results as given in patent publication US10597388B2, “Pyridazinone herbicides” (FMC CORPORATION, priority 2014, dated 2020).

Tests used:
Assay in all cases: Test D controlled growth environment herbicide test, pre- and postemergence
Format in all cases: in vivo
[1] = test system: field violet (Viola arvensis)
Method in brief: (§1)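 Pre-emergence: seeds sown in silt loam soil were sprayed with compound in a non-phytotoxic solvent mix containing surfactant. Post-emergence: plants at 2 to 18 cm (1- to 4-leaf stage) in peat moss/vermiculite medium got the same formulation. Visual 0–100 rating versus controls after 14 to 21 d.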

[2] = test system: buckwheat, wild (wild buckwheat, Polygonum convolvulus)
Method in brief: as §1

[3] = test system: radish, wild (wild radish, Raphanus raphanistrum)
Method in brief: as §1

[4] = test system: oat, wild (wild oat, Avena fatua)
Method in brief: as §1

[5] = test system: Russian thistle (Salsola kali)
Method in brief: as §1

[6] = test system: galium (catchweed bedstraw, Galium aparine)
Method in brief: as §1

[7] = test system: chickweed (common chickweed, Stellaria media)
Method in brief: as §1

[8] = test system: canarygrass (Phalaris minor)
Method in brief: as §1

[9] = test system: windgrass (Apera spica-venti)
Method in brief: as §1

[10] = test system: barley, winter (winter barley, Hordeum vulgare)
Method in brief: as §1

[11] = test system: pigweed (Amaranthus retroflexus)
Method in brief: as §1

[12] = test system: bromegrass, downy (downy bromegrass, Bromus tectorum)
Method in brief: as §1

kochia (Kochia scoparia) = test system: kochia (Kochia scoparia)
Method in brief: as §1

[13] = Postemergence, 31 g ai/ha, scale 0 to 100 (0 no effect, 100 complete control)
[14] = Postemergence, 125 g ai/ha, visual rating on scale 0 (no effect) to 100 (complete control), 14 to 21 d
[15] = Postemergence, 250 g ai/ha, scale 0 to 100 (0 no effect, 100 complete control)
[16] = Preemergence, 62 g ai/ha, scale 0 to 100 (0 no effect, 100 complete control)
[17] = Preemergence, 125 g ai/ha, scale 0 to 100 (0 no effect, 100 complete control)
[18] = Preemergence, 250 g ai/ha, scale 0 to 100 (0 no effect, 100 complete control)
[19] = postemergence, 62 g ai/ha, scale 0 to 100, 0 no effect, 100 complete control

`Cc1cc(C)c2sc(C)c(-c3c(OC(=O)OC(C)C)c(C)nn(C)c3=O)c2c1` [Compound 67] was tested, and the “Field Violet plant response rating” value [1, 13] was 80, the “Plant response rating, Field Violet” value [1, 14] was 90 and the “Plant response rating, Field Violet” value [1, 15] was 95. For the same molecule, the “Plant response rating (scale of 0 to 100), Field Violet” value ([1]; Preemergence, 31 g ai/ha) was 85, the “Plant response rating, Field Violet” value [1, 16] was 98 and the “Plant response rating, Field Violet” value [1, 17] was 100. For the same molecule, the “Plant response rating, Field Violet” value [1, 18] was 100, the “Plant response rating, Field Violet” value [1, 19] was 80 and the “Buckwheat, Wild plant response rating” value [2, 13] was 100. For the same molecule, the “Plant response rating, Buckwheat, Wild” value [2, 14] was 100, the “Plant response rating, Buckwheat, Wild” value [2, 15] was 100 and the “Plant response rating (scale of 0 to 100), Buckwheat, Wild” value ([2]; Preemergence, 31 g ai/ha) was 0. For the same molecule, the “Plant response rating, Buckwheat, Wild” value [2, 16] was 0, the “Plant response rating, Buckwheat, Wild” value [2, 17] was 0 and the “Plant response rating, Buckwheat, Wild” value [2, 18] was 0. The “Plant response rating, Buckwheat, Wild” value [2, 19] was 100, the “Radish, Wild plant response rating” value [3, 13] was 55 and the “Plant response rating, Radish, Wild” value [3, 14] was 70. The “Plant response rating, Radish, Wild” value [3, 15] was 95, the “Plant response rating (scale of 0 to 100), Radish, Wild” value ([3]; Preemergence, 31 g ai/ha) was 25 and the “Plant response rating, Radish, Wild” value [3, 16] was 60. The “Plant response rating, Radish, Wild” value [3, 17] was 75, the “Plant response rating, Radish, Wild” value [3, 18] was 95 and the “Plant response rating, Radish, Wild” value [3, 19] was 65. For the same molecule, the “Oat, Wild plant response rating” value [4, 13] was 95, the “Plant response rating, Oat, Wild” value [4, 14] was 100 and the “Plant response rating, Oat, Wild” value [4, 15] was 100. For the same molecule, the “Plant response rating (scale of 0 to 100), Oat, Wild” value ([4]; Preemergence, 31 g ai/ha) was 70, the “Plant response rating, Oat, Wild” value [4, 16] was 75 and the “Plant response rating, Oat, Wild” value [4, 17] was 80. For the same molecule, the “Plant response rating, Oat, Wild” value [4, 18] was 90, the “Plant response rating, Oat, Wild” value [4, 19] was 98 and the “Russian Thistle plant response rating” value [5, 13] was 55. The “Plant response rating, Russian Thistle” value [5, 14] was 75, the “Plant response rating, Russian Thistle” value [5, 15] was 85 and the “Plant response rating (scale of 0 to 100), Russian Thistle” value ([5]; Preemergence, 31 g ai/ha) was 0. For the same molecule, the “Plant response rating, Russian Thistle” value [5, 16] was 0, the “Plant response rating, Russian Thistle” value [5, 17] was 0 and the “Plant response rating, Russian Thistle” value [5, 18] was 25. For the same molecule, the “Plant response rating, Russian Thistle” value [5, 19] was 60, the “Galium plant response rating” value [6, 13] was 90 and the “Plant response rating, Galium” value [6, 14] was 100. The “Plant response rating, Galium” value [6, 15] was 100, the “Plant response rating (scale of 0 to 100), Galium” value ([6]; Preemergence, 31 g ai/ha) was 0 and the “Plant response rating, Galium” value [6, 16] was 10. The “Plant response rating, Galium” value [6, 17] was 35, the “Plant response rating, Galium” value [6, 18] was 70 and the “Plant response rating, Galium” value [6, 19] was 100. For the same molecule, the “Chickweed plant response rating” value [7, 13] was 85, the “Plant response rating, Chickweed” value [7, 14] was 100 and the “Plant response rating, Chickweed” value [7, 15] was 100. For the same molecule, the “Plant response rating (scale of 0 to 100), Chickweed” value ([7]; Preemergence, 31 g ai/ha) was 100, the “Plant response rating, Chickweed” value [7, 16] was 100 and the “Plant response rating, Chickweed” value [7, 17] was 100. For the same molecule, the “Plant response rating, Chickweed” value [7, 18] was 100, the “Plant response rating, Chickweed” value [7, 19] was 100 and the “Canarygrass plant response rating” value [8, 13] was 75. The “Plant response rating, Canarygrass” value [8, 14] was 85, the “Plant response rating, Canarygrass” value [8, 15] was 95 and the “Plant response rating (scale of 0 to 100), Canarygrass” value ([8]; Preemergence, 31 g ai/ha) was 40. The “Plant response rating, Canarygrass” value [8, 16] was 85, the “Plant response rating, Canarygrass” value [8, 17] was 90 and the “Plant response rating, Canarygrass” value [8, 18] was 95. The “Plant response rating, Canarygrass” value [8, 19] was 85, the “Windgrass plant response rating” value [9, 13] was 85 and the “Plant response rating, Windgrass” value [9, 14] was 90. For the same molecule, the “Plant response rating, Windgrass” value [9, 15] was 90, the “Plant response rating (scale of 0 to 100), Windgrass” value ([9]; Preemergence, 31 g ai/ha) was 30 and the “Plant response rating, Windgrass” value [9, 16] was 75. For the same molecule, the “Plant response rating, Windgrass” value [9, 17] was 80, the “Plant response rating, Windgrass” value [9, 18] was 95 and the “Plant response rating, Windgrass” value [9, 19] was 85. For the same molecule, the “Barley, Winter plant response rating” value [10, 13] was 0, the “Plant response rating, Barley, Winter” value [10, 14] was 5 and the “Plant response rating, Barley, Winter” value [10, 15] was 10. The “Plant response rating (scale of 0 to 100), Barley, Winter” value ([10]; Preemergence, 31 g ai/ha) was 0, the “Plant response rating, Barley, Winter” value [10, 16] was 0 and the “Plant response rating, Barley, Winter” value [10, 17] was 0. For the same molecule, the “Plant response rating, Barley, Winter” value [10, 18] was 0, the “Plant response rating, Barley, Winter” value [10, 19] was 0 and the “Pigweed plant response rating” value [11, 13] was 75. For the same molecule, the “Plant response rating, Pigweed” value [11, 14] was 85, the “Plant response rating, Pigweed” value [11, 15] was 100 and the “Plant response rating (scale of 0 to 100), Pigweed” value ([11]; Preemergence, 31 g ai/ha) was 35. For the same molecule, the “Plant response rating, Pigweed” value [11, 16] was 95, the “Plant response rating, Pigweed” value [11, 17] was 100 and the “Plant response rating, Pigweed” value [11, 18] was 100. For the same molecule, the “Plant response rating, Pigweed” value [11, 19] was 80, the “Bromegrass, Downy plant response rating” value [12, 13] was 60 and the “Plant response rating, Bromegrass, Downy” value [12, 14] was 65. For the same molecule, the “Plant response rating, Bromegrass, Downy” value [12, 15] was 70, the “Plant response rating (scale of 0 to 100), Bromegrass, Downy” value ([12]; Preemergence, 31 g ai/ha) was 25 and the “Plant response rating, Bromegrass, Downy” value [12, 16] was 35. The “Plant response rating, Bromegrass, Downy” value [12, 17] was 35, the “Plant response rating, Bromegrass, Downy” value [12, 18] was 70 and the “Plant response rating, Bromegrass, Downy” value [12, 19] was 60. The “Kochia plant response rating” value (kochia (Kochia scoparia); [13]) was 10, the “Plant response rating, Kochia” value (kochia (Kochia scoparia); [14]) was 40 and the “Plant response rating, Kochia” value (kochia (Kochia scoparia); [15]) was 50. For the same molecule, the “Plant response rating (scale of 0 to 100), Kochia” value (kochia (Kochia scoparia); Preemergence, 31 g ai/ha) was 0, the “Plant response rating, Kochia” value (kochia (Kochia scoparia); [16]) was 0 and the “Plant response rating, Kochia” value (kochia (Kochia scoparia); [17]) was 0. The “Plant response rating, Kochia” value (kochia (Kochia scoparia); [18]) was 0 and the “Plant response rating, Kochia” value (kochia (Kochia scoparia); [19]) was 35.
